Counter-ions that a name gives are not always drawn.
Legend:
Test in all cases: Method 1: intracellular Ca2+ release (FLIPR, Calcium 5) in recombinant CHO-K1 cells
Type in all cases: cell-based
[1] = target: T1, human S1PR5 receptor (Homo sapiens, UniProt Q9H228); settings: agonist potency, determined with method 1 (symbols A-D); read-out: S1P5 EC50 range
T1 construct: host or cells: CHO-K1
Outline: (§1)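 Agonist EC50 values come from nonlinear fits of FLIPR Ca2+ fluorescence, normalized to the phospho-fingolimod reference curve. Recombinant CHO-K1 (receptor plus Gq/i5, aequorin) dye-loaded 1 h at 37° C in pH 7.4 Hepes/probenecid/BSA buffer. Antagonist mode: 10 min preincubation before phospho-fingolimod at EC80.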

[2] = target: T2, human S1PR1 receptor (Homo sapiens, UniProt P21453); settings: (1): determined with method 1; read-out: S1P1 EC50
T2 construct: host or cells: CHO-K1
Outline: as §1

[3] = target: T3, human S1PR4 receptor (Homo sapiens, UniProt O95977); settings: (1): determined with method 1; read-out: S1P4 EC50
T3 construct: host or cells: CHO-K1
T3 sequence (O95977 1-384): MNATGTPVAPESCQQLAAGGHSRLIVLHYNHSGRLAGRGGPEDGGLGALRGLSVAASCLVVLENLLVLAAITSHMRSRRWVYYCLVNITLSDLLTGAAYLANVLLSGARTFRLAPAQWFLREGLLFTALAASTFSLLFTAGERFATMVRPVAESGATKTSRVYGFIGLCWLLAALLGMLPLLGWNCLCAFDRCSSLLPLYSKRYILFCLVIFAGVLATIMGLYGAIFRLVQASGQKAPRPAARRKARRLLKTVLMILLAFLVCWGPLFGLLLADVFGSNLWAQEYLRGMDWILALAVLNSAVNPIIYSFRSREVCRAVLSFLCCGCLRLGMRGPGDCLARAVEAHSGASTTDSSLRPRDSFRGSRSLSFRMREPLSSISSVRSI
Outline: as §1

[4] = target: T4, human S1PR3 receptor (Homo sapiens, UniProt Q99500); settings: (1): determined with method 1; read-out: S1P3 EC50
T4 construct: host or cells: CHO-K1
Outline: as §1

T2 sequence (P21453 whole entry): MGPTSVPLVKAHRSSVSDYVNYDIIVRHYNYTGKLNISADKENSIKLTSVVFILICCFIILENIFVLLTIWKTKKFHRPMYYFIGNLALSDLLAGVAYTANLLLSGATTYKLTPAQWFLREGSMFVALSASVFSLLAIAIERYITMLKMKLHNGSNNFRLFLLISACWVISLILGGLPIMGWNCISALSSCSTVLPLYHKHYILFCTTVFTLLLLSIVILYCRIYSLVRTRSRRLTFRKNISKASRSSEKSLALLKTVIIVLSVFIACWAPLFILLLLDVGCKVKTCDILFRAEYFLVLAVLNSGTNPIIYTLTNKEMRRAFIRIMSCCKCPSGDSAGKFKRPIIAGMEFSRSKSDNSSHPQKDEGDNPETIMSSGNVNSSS
T4 sequence (Q99500 whole entry): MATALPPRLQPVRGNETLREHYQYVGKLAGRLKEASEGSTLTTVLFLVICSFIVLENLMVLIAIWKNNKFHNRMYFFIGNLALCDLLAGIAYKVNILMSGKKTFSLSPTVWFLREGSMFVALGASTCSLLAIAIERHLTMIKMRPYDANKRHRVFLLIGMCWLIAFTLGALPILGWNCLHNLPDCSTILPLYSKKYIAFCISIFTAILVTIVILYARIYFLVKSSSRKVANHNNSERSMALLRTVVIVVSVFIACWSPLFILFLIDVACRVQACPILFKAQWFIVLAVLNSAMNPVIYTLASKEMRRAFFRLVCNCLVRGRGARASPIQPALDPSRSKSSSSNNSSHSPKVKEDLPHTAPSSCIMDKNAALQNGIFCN
T1 sequence (Q9H228 whole entry): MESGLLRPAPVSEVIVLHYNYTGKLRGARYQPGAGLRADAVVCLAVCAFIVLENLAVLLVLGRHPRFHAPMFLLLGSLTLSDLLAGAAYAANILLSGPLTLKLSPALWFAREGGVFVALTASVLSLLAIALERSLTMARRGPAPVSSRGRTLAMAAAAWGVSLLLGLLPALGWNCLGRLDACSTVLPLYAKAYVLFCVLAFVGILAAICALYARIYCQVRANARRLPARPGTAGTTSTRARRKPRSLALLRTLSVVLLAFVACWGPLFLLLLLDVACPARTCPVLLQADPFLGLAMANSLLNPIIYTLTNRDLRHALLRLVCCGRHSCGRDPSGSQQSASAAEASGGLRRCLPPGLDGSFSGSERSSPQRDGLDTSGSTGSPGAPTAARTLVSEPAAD

SMILES	EC50 [1] [nM]	EC50 [2] [nM]	EC50 [3] [nM]	EC50 [4] [nM]
Cc1ccc(COc2ccc(-c3ncc4c(n3)CCN(CC(C)CC(=O)O)C4)c(F)c2)cc1C(F)(F)F (stereo not drawn) [Compound 279, 4-[2-[2-fluoro-4-[[4-methyl-3-(trifluoromethyl)phenyl]methoxy]phenyl]-7,8-dihydro-5H-pyrido[4,3-d]pyrimidin-6-yl]-3-methyl-butanoic acid 2,2,2-trifluoroacetic acid salt]	10 to 100	> 1000	> 1000	> 1000
O=C(O)CCN1CCc2nc(-c3ccc(OCc4cccc(Cl)c4)cc3)cnc2C1 [Compound 179, 3-(2-(4-((3-chlorobenzyl)oxy)phenyl)-7,8-dihydropyrido[3,4-b]pyrazin-6(5H)-yl)propanoic acid]	< 10	> 1000	> 1000	< 1000
Cc1ccccc1C#Cc1ncc2c(n1)CCN(C1CC(C(=O)O)C1)C2 (stereo not drawn) [Compound 55, 3-(2-(o-tolylethynyl)-7,8-dihydropyrido[4,3-d]pyrimidin-6(5H)-yl)cyclobutanecarboxylic acid]	1000 to 10000	> 1000	> 1000	> 1000
O=C(O)CCN1CCc2nc(-c3ccc(OCc4c(Cl)cccc4Cl)cc3)c(F)cc2C1 [Compound 192, 3-(2-(4-((2,6-dichlorobenzyl)oxy)phenyl)-3-fluoro-7,8-dihydro-1,6-naphthyridin-6(5H)-yl)propanoic acid]	< 10	> 1000	> 1000	> 1000
CC(CCN1CCc2nc(-c3ccc(OCc4cccc(Cl)c4)cc3)c(F)cc2C1)C(=O)O (stereo not drawn) [Compound 182, 4-(2-(4-((3-chlorobenzyl)oxy)phenyl)-3-fluoro-7,8-dihydro-1,6-naphthyridin-6(5H)-yl)-2-methylbutanoic acid]	< 10	> 1000	> 1000	> 1000
O=C(O)C1CC(N2CCc3nc(C#Cc4ccc(OCc5ccccc5)cc4)ncc3C2)C1 (stereo not drawn) [Compound 59, 3-(2-((4-(benzyloxy)phenyl)ethynyl)-7,8-dihydropyrido[4,3-d]pyrimidin-6(5H)-yl)cyclobutanecarboxylic acid]	1000 to 10000	> 1000	> 1000	> 1000
CC(C)c1ccc(C#Cc2ncc3c(n2)CCN(C2CC(C(=O)O)C2)C3)cc1 (stereo not drawn) [Compound 58, 3-(2-((4-isopropylphenyl)ethynyl)-7,8-dihydropyrido[4,3-d]pyrimidin-6(5H)-yl)cyclobutanecarboxylic acid]	1000 to 10000	> 1000	> 1000	> 1000
O=C(O)CN1CCc2nc(-c3ccc(OCc4ccc(Cl)c(Cl)c4)cc3)ncc2C1 [Compound 30, 2-(2-(4-((3,4-dichlorobenzyl)oxy)phenyl)-7,8-dihydropyrido[4,3-d]pyrimidin-6(5H)-yl)acetic acid]	10 to 100	> 1000	> 1000	> 1000
CC(CC(=O)O)CN1CCc2nc(-c3ccc(OCc4cccc(Cl)c4)cc3F)ncc2C1 (stereo not drawn) [Compound 232, 4-(2-(4-((3-chlorobenzyl)oxy)-2-fluorophenyl)-7,8-dihydropyrido[4,3-d]pyrimidin-6(5H)-yl)-3-methylbutanoic acid]	< 10	> 1000	> 1000	> 1000
O=C(O)CCN1CCc2nc(-c3ccc(OCc4cccc(C(F)F)c4)cc3)ccc2C1 [Compound 159, 3-(2-(4-((3-difluoromethylbenzyl)oxy)phenyl)-7,8-dihydro-1,6-naphthyridin-6(5H)-yl)propanoic acid]	< 10	> 1000	> 1000	> 1000
O=C(O)C1(CN2CCc3nc(-c4ccc(Cc5ccccc5)cc4)ncc3C2)CC1 [Compound 218, 1-((2-(4-benzylphenyl)-7,8-dihydropyrido[4,3-d]pyrimidin-6(5H)-yl)methyl)cyclopropanecarboxylic acid]	1000 to 10000	> 1000	> 1000	> 1000
O=C(O)CC1(CN2CCc3nc(-c4ccc(OCc5cccc(Cl)c5)cc4)ncc3C2)CC1 [Compound 285, 2-((4(2-(4-((3-chlorobenzyl)oxy)phenyl)-7,8-dihydropyrido[4,3-d]pyrimidin-6(5H)-yl)methyl)cyclopropyl)acetic acid]	100 to 1000	> 1000	< 1000	> 1000
O=C(O)C1CC(N2CCc3nc(C#Cc4ccc(Cl)cc4)ccc3C2)C1 (stereo not drawn) [Compound 120, 3-(2-((4-chlorophenyl)ethynyl)-7,8-dihydro-1,6-naphthyridin-6(5H)-yl)cyclobutanecarboxylic acid]	1000 to 10000	> 1000	> 1000	> 1000
CCc1cccc(Cl)c1COc1ccc(-c2ncc3c(n2)CCN(CC(C)C(=O)O)C3)cc1 (stereo not drawn) [Compound 18, 3-(2-(4-((2-chloro-6-ethylbenzyl)oxy)phenyl)-7,8-dihydropyrido[4,3-d]pyrimidin-6(5H)-yl)-2-methylpropanoic acid]	10 to 100	> 1000	< 1000	> 1000
O=C(O)CN1CCc2nc(Cc3ccccc3)ncc2C1 [Compound 24, 2-(2-benzyl-7,8-dihydropyrido[4,3-d]pyrimidin-6(5H)-yl)acetic acid]	1000 to 10000	> 1000	> 1000	> 1000
O=C(O)C1CC(N2CCc3nc(C#Cc4ccc(F)cc4)ncc3C2)C1 (stereo not drawn) [Compound 57, 3-(2-((4-fluorophenyl)ethynyl)-7,8-dihydropyrido[4,3-d]pyrimidin-6(5H)-yl)cyclobutanecarboxylic acid]	1000 to 10000	> 1000	> 1000	> 1000
O=C(O)CN1CCc2nc(-c3ccc(OCc4c(Cl)cccc4Cl)cc3)ncc2C1 [Compound 34, 2-(2-(4-((2,6-dichlorobenzyl)oxy)phenyl)-7,8-dihydropyrido[4,3-d]pyrimidin-6(5H)-yl)acetic acid]	100 to 1000	< 1000	< 1000	< 1000
Cc1cc(-c2ncc3c(n2)CCN(CC(C)CC(=O)O)C3)ccc1OCc1ccc(Cl)cc1 (stereo not drawn) [Compound 258, 4-(2-(4-((4-chlorobenzyl)oxy)-3-methylphenyl)-7,8-dihydropyrido[4,3-d]pyrimidin-6(5H)-yl)-3-methylbutanoic acid]	10 to 100	> 1000	> 1000	> 1000
Cc1c(COc2ccc(-c3ncc4c(n3)CCN(CC(C)CC(=O)O)C4)c(F)c2)cccc1C(F)(F)F (stereo not drawn) [Compound 241, 4-[2-[2-fluoro-4-[[2-methyl-3-(trifluoromethyl)phenyl]methoxy]phenyl]-7,8-dihydro-5H-pyrido[4,3-d]pyrimidin-6-yl]-3-methyl-butanoic acid 2,2,2-trifluoroacetic acid salt]	< 10	> 1000	> 1000	> 1000
O=C(O)CCN1CCc2nc(-c3ccc(OCc4ccc(OC(F)F)cc4)cc3)ncc2C1 [Compound 83, 3-(2-(4-((4-(difluoromethoxy)benzyl)oxy)phenyl)-7,8-dihydropyrido[4,3-d]pyrimidin-6(5H)-yl)propanoic acid]	< 10	> 1000	> 1000	> 1000
Cc1cccc(COc2ccc(-c3ncc4c(n3)CCN(CC(C)CC(=O)O)C4)c(F)c2)c1C (stereo not drawn) [Compound 231, 4-[2-[4-[(2,3-dimethylphenyl)methoxy]-2-fluoro-phenyl]-7,8-dihydro-5H-pyrido[4,3-d]pyrimidin-6-yl]-3-methyl-butanoic acid 2,2,2-trifluoroacetic acid salt]	< 10	> 1000	> 1000	> 1000
CC(C)(C)c1ccc(COc2ccc(-c3ncc4c(n3)CCN(CCC(=O)O)C4)cc2)cc1 [Compound 87, 3-(2-(4-((4-(tert-butyl)benzyl)oxy)phenyl)-7,8-dihydropyrido[4,3-d]pyrimidin-6(5H)-yl)propanoic acid]	10 to 100	> 1000	> 1000	> 1000
C[C@@H](CC(=O)O)CN1CCc2nc(-c3ccc(C(F)(F)Cc4ccc(Cl)cc4)cc3)ncc2C1 (single isomer, unassigned) [Compound 266, 4-(2-(4-(2-(4-chlorophenyl)-1,1-difluoroethyl)phenyl)-7,8-dihydropyrido[4,3-d]pyrimidin-6(5H)-yl)-3-methylbutanoic acid]	10 to 100	> 1000	> 1000	> 1000
CC(CC(=O)O)CN1CCc2nc(-c3ccc(OCc4ccc(F)c(F)c4)cc3)ncc2C1 (stereo not drawn) [Compound 228, 4-(2-(4-((3,4-difluorobenzyl)oxy)phenyl)-7,8-dihydropyrido[4,3-d]pyrimidin-6(5H)-yl)-3-methylbutanoic acid]	< 10	> 1000	> 1000	> 1000

Source: patent US10556907B2 (AbbVie Inc., priority 2015, dated 2020)
